This note sets out measurements from patent US9834542B2, “LXR modulators” (BRISTOL-MYERS SQUIBB COMPANY, priority 2013, dated 2017).

This assay concerns the target T1, LXRβ (Homo sapiens, UniProt P55055).
T1 construct: Co-transfection expression plasmids, comprising full-length LXRα (pCMX-h LXRα[…] or LXRβ (pCMX-hLXRβ)); expressed in transfected cells; host or cells: CV-1 African Green Monkey Kidney Cells
T1 sequence (P55055 1-460): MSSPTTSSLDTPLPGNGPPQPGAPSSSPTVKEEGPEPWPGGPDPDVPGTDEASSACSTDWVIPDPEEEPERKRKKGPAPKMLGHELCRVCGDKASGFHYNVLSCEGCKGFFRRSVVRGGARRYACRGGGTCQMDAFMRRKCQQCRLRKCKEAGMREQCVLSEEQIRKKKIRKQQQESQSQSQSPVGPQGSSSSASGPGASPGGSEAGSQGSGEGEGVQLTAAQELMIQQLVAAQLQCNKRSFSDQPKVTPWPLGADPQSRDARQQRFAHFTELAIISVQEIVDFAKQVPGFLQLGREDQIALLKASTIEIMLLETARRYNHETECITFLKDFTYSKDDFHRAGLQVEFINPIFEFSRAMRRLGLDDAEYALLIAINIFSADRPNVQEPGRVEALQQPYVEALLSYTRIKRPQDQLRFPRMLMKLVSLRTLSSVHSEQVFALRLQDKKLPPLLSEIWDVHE
T1 sequence (P19793 1-462 partner): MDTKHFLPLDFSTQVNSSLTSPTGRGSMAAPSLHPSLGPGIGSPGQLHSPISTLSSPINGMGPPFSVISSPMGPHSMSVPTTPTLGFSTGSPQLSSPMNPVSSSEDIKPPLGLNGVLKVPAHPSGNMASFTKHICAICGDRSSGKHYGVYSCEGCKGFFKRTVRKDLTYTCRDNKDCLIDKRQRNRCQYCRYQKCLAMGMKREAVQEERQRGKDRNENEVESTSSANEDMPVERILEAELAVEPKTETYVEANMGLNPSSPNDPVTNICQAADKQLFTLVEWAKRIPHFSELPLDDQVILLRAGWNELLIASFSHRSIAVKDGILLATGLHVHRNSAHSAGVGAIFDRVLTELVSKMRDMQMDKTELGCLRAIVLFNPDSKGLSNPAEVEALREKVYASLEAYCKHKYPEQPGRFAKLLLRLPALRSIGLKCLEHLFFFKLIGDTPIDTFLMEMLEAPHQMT
The assay is described as follows: Co-transfection assay (LXRE luciferase reporter), LXRβ. Type of assay: cell-based. The settings on record: for EC50: CV-1 cells transfected with pCMX-hLXRβ and LXREx1-Tk-Luciferase, 20 hours incubation; for Emax: LXRβ co-transfection, relative to high control 1-(2,4-difluorobenzyl)-2-oxo-6-(4-phenoxyphenyl)-4-(trifluoromethyl)-1,2-dihydropyridine-3-carbonitrile, read-out: % Efficacy. The method in brief:
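CV-1 cells transiently co-transfected with full-length human LXRβ expression plasmid, LXREx1-Tk-luciferase reporter and β-galactosidase control, then exposed to compound for 20 h at 37 °C. Luciferase luminescence read; EC50 from 11-point, ½-log dose–response fit, efficacy relative to high-control agonist maximum.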
(In general: A reporter such as luciferase makes a cellular process visible.)

With `Cc1nc(C(F)(F)F)cn1-c1ccc(-c2cccc(S(C)(=O)=O)c2)cc1-c1oc(CCO)nc1-c1ccc2c(c1)OC(F)(F)O2` [Example 622, 2-(4-(2,2-difluorobenzo[d][1,3]dioxol-5-yl)-5-(4-(2-methyl-4-(trifluoromethyl)-1H-imidazol-1-yl)-3′-(methylsulfonyl)-[1,1′-biphenyl]-3-yl)oxazol-2-yl)ethanol], the EC50 (commonly the midpoint of the concentration-response curve) worked out at 410 nM and the Emax was found to be 85%.

For `Cc1nc(-c2ccc3c(c2)OC(F)(F)O3)c(-c2cc(-c3cc(Cl)c(CO)c(S(C)(=O)=O)c3)ccc2-n2cc(C(F)(F)F)nc2C)o1` [Example 623, (3-chloro-3′-(4-(2,2-difluorobenzo[d][1,3]dioxol-5-yl)-2-methyloxazol-5-yl)-4′-(2-methyl-4-(trifluoromethyl)-1H-imidazol-1-yl)-5-(methylsulfonyl)-[1,1′-biphenyl]-4-yl)methanol], the EC50 worked out at 203 nM and the Emax was determined as 80%.

As to `Cc1nc(-c2ccc(OC(F)F)cc2)c(-c2cc(-c3cc(F)c(CO)c(S(C)(=O)=O)c3)ccc2-n2cc(C(F)(F)F)nc2C)o1` [Example 624, (3′-(4-(4-(difluoromethoxy)phenyl)-2-methyloxazol-5-yl)-3-fluoro-4′-(2-methyl-4-(trifluoromethyl)-1H-imidazol-1-yl)-5-(methylsulfonyl)-[1,1′-biphenyl]-4-yl)methanol], a half-maximal effect (EC50) was put at 42 nM and the Emax was determined as 112%.

Consider `Cc1nc(-c2ccc(OC(F)F)cc2)c(-c2cc(-c3ccc(CO)c(S(C)(=O)=O)c3)ccc2-n2cc(C(F)(F)F)nc2C)o1` [Example 625, (3′-(4-(4-(difluoromethoxy)phenyl)-2-methyloxazol-5-yl)-4′-(2-methyl-4-(trifluoromethyl)-1H-imidazol-1-yl)-3-(methylsulfonyl)-[1,1′-biphenyl]-4-yl)methanol], for which the EC50 was 73 nM and the Emax amounted to 117%.

On to `Cc1nc(-c2ccc(OC(F)(F)F)cc2O)c(-c2cc(-c3cccc(S(C)(=O)=O)c3)ccc2-n2cc(C(F)(F)F)nc2C)o1` [Example 626, 2-(2-methyl-5-(4-(2-methyl-4-(trifluoromethyl)-1H-imidazol-1-yl)-3′-(methylsulfonyl)-[1,1′-biphenyl]-3-yl)oxazol-4-yl)-5-(trifluoromethoxy)phenol], for which the EC50 was found to be 57 nM and the Emax is 62%.

As to `Cc1nc(-c2ccc(OC(F)(F)F)cc2)c(-c2cc(-c3cccc([S+](C)[O-])c3)ccc2-n2cc(C(F)(F)F)nc2C)o1` (stereo not drawn) [Example 627, 2-methyl-5-(4-(2-methyl-4-(trifluoromethyl)-1H-imidazol-1-yl)-3′-(methylsulfinyl)-[1,1′-biphenyl]-3-yl)-4-(4-(trifluoromethoxy)phenyl)oxazole], the EC50 is 269 nM and the Emax came to 93%.

Regarding `Cc1nc(C(F)(F)F)cn1-c1ccc(-c2cccc(S(C)(=O)=O)c2)cc1-c1oc(CCN(C)C)nc1-c1ccc(OC(F)(F)F)cc1` [Example 628, N,N-dimethyl-2-(5-(4-(2-methyl-4-(trifluoromethyl)-1H-imidazol-1-yl)-3′-(methylsulfonyl)-[1,1′-biphenyl]-3-yl)-4-(4-(trifluoromethoxy)phenyl)oxazol-2-yl)ethanamine], the midpoint of the response, the EC50, lay at 412 nM and the Emax is 82%.

As to `Cc1nc(-c2ccccc2C(F)(F)F)c(-c2cc(-c3cccc(S(C)(=O)=O)c3)ccc2-n2cc(C(F)(F)F)nc2C)o1` [Example 629, 2-methyl-5-(4-(2-methyl-4-(trifluoromethyl)-1H-imidazol-1-yl)-3′-(methylsulfonyl)-[1,1′-biphenyl]-3-yl)-4-(2-(trifluoromethyl)phenyl)oxazole], the response was half-maximal at 303 nM (EC50) and the Emax stood at 31%.

Consider `Cc1nc(-c2ccccc2C(F)(F)F)c(-c2cc(-c3cc(F)c(CO)c(S(C)(=O)=O)c3)ccc2-n2cc(C(F)(F)F)nc2C)o1` [Example 630, (3-fluoro-3′-(2-methyl-4-(2-(trifluoromethyl)phenyl)oxazol-5-yl)-4′-(2-methyl-4-(triftuoromethyl)-1H-imidazol-1-yl)-5-(methylsulfonyl)-[1,1′-biphenyl]-4-yl)methanol], for which the midpoint of the response, the EC50, lay at 103 nM and the Emax is 30%.

Take `Cc1nc(-c2ccccc2OC(F)(F)F)c(-c2cc(-c3cccc(S(C)(=O)=O)c3)ccc2-n2cc(C(F)(F)F)nc2C)o1` [Example 631, 2-methyl-5-(4-(2-methyl-4-(trifluoromethyl)-1H-imidazol-1-yl)-3′-(methylsulfonyl)-[1,1′-biphenyl]-3-yl)-4-(2-(trifluoromethoxy)phenyl)oxazole]: the EC50 was determined as 216 nM and the Emax turned out to be 43%.

As to `Cc1nc(-c2ccccc2OC(F)(F)F)c(-c2cc(-c3cc(F)c(CO)c(S(C)(=O)=O)c3)ccc2-n2cc(C(F)(F)F)nc2C)o1` [Example 632, (3-fluoro-3′-(2-methyl-4-(2-(trifluoromethoxy)phenyl)oxazol-5-yl)-4′-(2-methyl-4-(trifluoromethyl)-1H-imidazol-1-yl)-5-(methylsulfonyl)-[1,1′-biphenyl]-4-yl)methanol], the response was half-maximal at 34 nM (EC50) and the Emax amounted to 41%.

For `Cc1nc(C(F)(F)F)cn1-c1ccc(-c2cc(F)c(CO)c(S(C)(=O)=O)c2)cc1-c1ocnc1Cc1ccc(Cl)cc1` [Example 633, (3′-(4-(4-chlorobenzyl)oxazol-5-yl)-3-fluoro-4′-(2-methyl-4-(trifluoromethyl)-1H-imidazol-1-yl)-5-(methylsulfonyl)-[1,1′-biphenyl]-4-yl)methanol], the EC50 is 161 nM and the Emax was found to be 66%.

Regarding `Cc1nc(C(F)(F)F)cn1-c1ccc(-c2cccc(S(C)(=O)=O)c2)cc1-c1ocnc1Cc1ccc(Cl)cc1` [Example 634, 4-(4-chlorobenzyl)-5-(4-(2-methyl-4-(trifluoromethyl)-1H-imidazol-1-yl)-3′-(methylsulfonyl)-[1,1′-biphenyl]-3-yl)oxazole], the EC50 was 249 nM and the Emax amounted to 68%.

For `Cc1nc(C(F)(F)F)cn1-c1ccc(-c2ccc(CO)c(S(C)(=O)=O)c2)cc1-c1ocnc1Cc1ccc(Cl)cc1` [Example 635, (3′-(4-(4-chlorobenzyl)oxazol-5-yl)-4′-(2-methyl-4-(trifluoromethyl)-1H-imidazol-1-yl)-3-(methylsulfonyl)-[1,1′-biphenyl]-4-yl)methanol], the EC50 was 229 nM and the Emax came out at 58%.

For the molecule `Cc1nc(C(F)(F)F)cn1-c1ccc(-c2cccc(S(C)(=O)=O)c2)cc1-c1ocnc1Cc1ccc(OC(F)(F)F)cc1` [Example 636, 5-(4-(2-methyl-4-(trifluoromethyl)-1H-imidazol-1-yl)-3′-(methylsulfonyl)-[1,1′-biphenyl]-3-yl)-4-(4-(trifluoromethoxy)benzyl)oxazole], the EC50 amounted to 702 nM and the Emax was found to be 41%.

In the case of `COc1cc(OC(F)(F)F)ccc1-c1nc(C)oc1-c1cc(-c2cccc(S(C)(=O)=O)c2)ccc1-n1cc(C(F)(F)F)nc1C` [Example 637, 4-(2-methoxy-4-(trifluoromethoxy)phenyl)-2-methyl-5-(4-(2-methyl-4-(trifluoromethyl)-1H-imidazol-1-yl)-3′-(methylsulfonyl)-[1,1′-biphenyl]-3-yl)oxazole], the EC50 came to 579 nM and the Emax came to 40%.

Consider `Cc1nc(C(F)(F)F)cn1-c1ccc(-c2cc(F)c(CO)c(S(C)(=O)=O)c2)cc1-c1nc(C(F)(F)F)cn1-c1ccc2c(c1)OC(F)(F)O2` [Example 638, (3′-(1-(2,2-difluorobenzo[d][1,3]dioxol-5-yl)-4-(trifluoromethyl)-1H-imidazol-2-yl)-3-fluoro-4′-(2-methyl-4-(trifluoromethyl)-1H-imidazol-1-yl)-5-(methylsulfonyl)biphenyl-4-yl)methanol], for which a half-maximal effect (EC50) was put at 143 nM and the Emax was determined as 79%.

With `Cc1nc(C(F)(F)F)cn1-c1ccc(-c2cc(F)c(CO)c(S(C)(=O)=O)c2)cc1-c1nc(C2CC2)cn1-c1ccc2c(c1)OC(F)(F)O2` [Example 639, (3′-(4-cyclopropyl-1-(2,2-difluorobenzo[d][1,3]dioxol-5-yl)-1H-imidazol-2-yl)-3-fluoro-4′-(2-methyl-4-(trifluoromethyl)-1H-imidazol-1-yl)-5-(methylsulfonyl)biphenyl-4-yl)methanol], the EC50 turned out to be 129 nM and the Emax is 81%.
